# Where two headings read alike, the source gives them in different places.
# Columns and labels:
# [1] = tested on: herpes simplex virus 2 (HSV-2) (G); assay: microbe, parasite or virus in culture; assay type: cell-based; settings: Human alphaherpesvirus 2, E6SM
# [2] = tested on: herpes simplex virus type 1 (HSV-1) (KOS); assay: microbe, parasite or virus in culture; assay type: cell-based; settings: Human alphaherpesvirus 1, E6SM
# herpes viruses = settings: in words; literature; cited from earlier work
# vaccinia virus (VV) = assay: microbe, parasite or virus in culture; assay type: cell-based; settings: Orthopoxvirus vaccinia, E6SM
# in vitro = settings: human, e6 sm cells, Minimum cytotoxic concentration
# [3] = tested on: Vesicular stomatitis virus; assay: microbe, parasite or virus in culture; assay type: cell-based; settings: E6SM, read-out: Minimum inhibitory concentration Vesicular stomatitis virus
# herpes simplex (1 and 2) = assay: Anti-herpes simplex (1 and 2) activity, statement in words; assay type: cell-based, herpes simplex virus
# [4] = Table I, E6 SM cells, required to reduce virus-induced cytopathogenesis by 50%, read-out: Minimum inhibiting concentration ED50 HSV-2 (G)
# [5] = Table I, E6 SM cells, required to reduce virus-induced cytopathogenesis by 50%, read-out: Minimum inhibiting concentration ED50 HSV-1 (KOS)
# [6] = read-out: Minimum inhibiting concentration ED50 VV
# [7] = read-out: Minimum inhibitory concentration Herpes simplex virus-2 (G)
# [8] = read-out: Minimum inhibitory concentration Herpes simplex virus-1 (KOS)
# [9] = read-out: Minimum inhibitory concentration Vaccinia virus
# [10] = Table III, required to cause a microscopically detectable alteration of normal cell morphology
Compound,"EC50 [1, 4]","EC50 [2, 5]",anti-viral activity against herpes viruses (herpes viruses),EC50 (vaccinia virus (VV); [6]),MCC (in vitro),"EC50 [1, 7]",EC50 [3],"EC50 [2, 8]",EC50 (vaccinia virus (VV); [9]),MCC (in vitro; [10]),anti-herpes simplex (1 and 2) activity (herpes simplex (1 and 2))
"O=c1[nH]c(=O)n([C@H]2C[C@H](O)[C@@H](CO)O2)cc1I [IDU, 5-iodo-2'-deoxyuridine]",0.2 µg/mL,0.2 µg/mL,dependent on a virus-specific thymidine kinase,0.2 µg/mL,> 400 µg/mL,,,,,,
"Nc1nccc2c1ncn2[C@@H]1C[C@H](CO)[C@@H](O)[C@H]1O (relative stereo) [C-c^3 Ado, carbocyl 3-deaza adenosine]",40 µg/mL,> 400 µg/mL,,0.7 µg/mL,> 400 µg/mL,> 200 µg/mL,0.2 µg/mL,> 200 µg/mL,0.2 µg/mL,≥ 200 µg/mL,
"Nc1ccn([C@@H]2CO[C@H](CO)[C@@H](O)C2)c(=O)n1 [Compound 20, 1,5-Anhydro-2-(cytosin-1-yl)-2,3-dideoxy-D-arabinohexitol]",0.04 µg/mL,0.7 µg/mL,,0.7 µg/mL,> 400 µg/mL,,,,,,
"NC(=O)c1ncn(C2O[C@H](CO)[C@@H](O)[C@H]2O)n1 (stereo partly drawn) [Ribavirin, 1-ribofuranosyl-3-carbamoyl-1,2,4-triazol]",70 µg/mL,70 µg/mL,,,> 400 µg/mL,> 400 µg/mL,20 µg/mL,200 µg/mL,70 µg/mL,> 400 µg/mL,
"CCc1cn([C@@H]2CO[C@H](CO)[C@@H](O)C2)c(=O)[nH]c1=O [Compound 23, 1,5-Anhydro-2,3-dideoxy-2-(5-ethyluracil-1-yl)-D-arabinohexitol]",,,,,,0.2 µg/mL,> 200 µg/mL,< 0.04 µg/mL,> 200 µg/mL,> 200 µg/mL,especially advantageous anti-herpes simplex (1 and 2) activity
"O=c1[nH]c(=O)n([C@H]2C[C@H](O)[C@@H](CO)O2)cc1/C=C/Br [BVDU, E-5-(2-bromovinyl)-2'-deoxyuridine]",10 µg/mL,,dependent on a virus-specific thymidine kinase,0.2 µg/mL,> 400 µg/mL,> 200 µg/mL,> 200 µg/mL,0.004 µg/mL,0.7 µg/mL,≥ 200 µg/mL,
"O=c1[nH]c(=O)n([C@@H]2CO[C@H](CO)[C@@H](O)C2)cc1I [Compound 18, 1,5-Anhydro-2,3-dideoxy-2-(5-iodouracil-1-yl)-D-arabino-hexitol]",0.07 µg/mL,0.07 µg/mL,,150 µg/mL,> 400 µg/mL,,,,,,especially advantageous anti-herpes simplex (1 and 2) activity
"Nc1ncnc2c1ncn2C[C@H](O)CO [(S)-DHPA, (S)-9-(2,3-dihydroxypropyl)-adenine]",300 µg/mL,70 µg/mL,,,> 400 µg/mL,> 200 µg/mL,20 µg/mL,> 200 µg/mL,20 µg/mL,≥ 200 µg/mL,
"Nc1nc(O)c2ncn([C@@H]3CO[C@H](CO)[C@@H](O)C3)c2n1 [Compound 13, 1,5-Anhydro-2-(guanin-9-yl)-2,3-dideoxy-D-arabinohexitol]",0.1 µg/mL,0.2 µg/mL,,2 µg/mL,> 400 µg/mL,,,,,,
"Nc1ncnc2c1ncn2[C@@H]1CO[C@H](CO)[C@@H](O)C1 [Compound 10, 1,5-Anhydro-2-(adenin-9-yl) 2,3-dideoxy-D-arabinohexitol]",7 µg/mL,7 µg/mL,,20 µg/mL,> 400 µg/mL,,,,,,
"Cc1cn([C@@H]2CO[C@H](CO)[C@@H](O)C2)c(=O)[nH]c1=O [Compound 17, 1,5-Anhydro-2,3-dideoxy2-(thymin-1-yl)-D-arabinohexitol]",150 µg/mL,40 µg/mL,,> 200 µg/mL,> 400 µg/mL,,,,,,

# — patent US5607922A, “1,5-anhydrohexitol nucleoside analogues” (Stichting Rega VZW, priority 1992, dated 1997)
